Test system: Jurkat cells
Experiment: ECMP attachment screen for Jurkat cell attachment on hydrogel array spots
Type: cell-based, human
Settings: printed alone in a 400 μm spot on hydrogel coated slide; nuclear fluorescence (DraQ) after 3 hours of attachment
Experimental: In certain embodiments, stock solutions of extracellular matrix (ECM) components (0.01 mg/ml-1 mg/ml), such as Collagen I, III, IV, V, VI, Fibronectin, Laminin, and the like, as well as Hyaluronic Acid, gelatin and BSA (negative control) are mixed 1:1 with 200 mM acetate, 10 mM EDTA, 40% (v/v) glycerol, and 0.5% (v/v) Triton X-100 in MQH2O, at pH 4.9. Individual and combinations of different components are mixed in 384-well plates. This ECM based array is used to screen for the optimal cell attachment conditions.
The human acute T cell leukemia Jurkat cell line (ATTC Number TIB-153) was purchased from American Type Culture Collection (ATCC). Cells were cultured in RPMI-1640, supplemented with 10% FBS, 2 mmol/liter glutamin and antibiotics (100 IU/ml of penicillin G) and incubated at 37° C. in a humidified atmosphere of 5% CO2. […]
FIG. 3, for example, summarizes the attachment components that were identified to support Jurkat cell attachment on invention arrays. Briefly, Jurkat nuclear intensity was monitored by fluorescence using DraQ staining after 3 hours of attachment. The slides were read using a […] and fluorescence was quantified using the Genepix 2.0 software. […]

Q: Fibronectin was tested. Which Jurkat cell attachment did it give?
A: consistently supported attachment of Jurkat cells

From patent publication US20130130376A1, “SCREENING METHODS, COMPOSITIONS IDENTIFIED THEREBY, TOOLS USEFUL FOR THE IDENTIFICATION THEREOF, AND CELL POPULATIONS PRODUCED THEREBY” (priority 2010, published 2013)
